Measured values reported in US20040143025A1, “Carbon monoxide generating compunds for treatment of vascular, inflammatory and immune disorders” (priority 2002, published 2004).

How the values were obtained:
[1] = test system: rat liver; assay: Histologic severity of I/R injury, Banff criteria; set-up: species or system Sprague Dawley (SD) rats; conditions: CO, scale 1-4
Excerpt: Histology. Liver specimens were fixed in a 10% buffered formalin solution and embedded in paraffin. Sections were made at 4 μm and stained with H&E. The histologic severity of I/R injury was graded using International Banff Criteria (Int'l Banff Schema Conference Worksheet, The Third Int'l Banff Conference on Allograft Pathology, June 21-25 (1995)). Using these criteria, lobular disarray and ballooning changes are graded from 1-4, where no change is given a score of 1 and severe disarray or ballooning changes are given a score of 4.

[2] = test system: Myeloperoxidase (MPO); assay: Myeloperoxidase (MPO) assay, neutrophil activity in liver tissue; set-up: species or system Sprague Dawley (SD) rats; conditions: liver tissue at conclusion of 2 h reperfusion with CO
Method: Myeloperoxidase (MPO) assay. MPO is a naturally occurring constituent of neutrophils and is used as a marker for neutrophil infiltration. Frozen tissue samples were thawed and suspended in an iced solution of 0.5% hexadecyltrimethyl-ammonium (Sigma) and 50 mMol potassium phosphate buffer solution (Sigma) with pH adjusted to 5. Samples are homogenized for 30 sec, centrifuged at 15,000 rpm for 15 min at 4° C. 0.1 ml of the supernatant was then mixed in solution of hydrogen peroxide-sodium acetate and tetramethyl benzidine (Sigma). The change in absorbance at 460 run was measured with a Beckman DU spectrophotometer (Beckman Institute, Fullerton, Calif.). The quantity of enzyme degrading 1 μMol peroxide per minute at 25° C. per gram of tissue was defined as one unit of MPO activity.

[3] = test system: HO-1; assay: Western blot of liver samples, HO-1; set-up: species or system rat; conditions: 2 h after perfusion
Method: Western blots. Protein was extracted from liver samples with PBSTDS buffer (50 mM Tris, 150 mM NaCl, 0.1% SDS, 1% sodium deoxycholate, and 1% triton X-100, pH 7.2). Proteins (30 μg/sample) in SDS-loading buffer (50 mM Tris, pH 7.6, 10% glycerol, 1% SDS) were subjected to 12% SDS-polyacrylamide gel electrophoresis and transferred to nitrocellulose membrane (Bio-Rad, Hercules, Calif.). The gel was stained with coomassie blue to document equal protein loading. The membrane was blocked with 3% dry milk and 0.1% Tween 20 (USB, Cleveland, Ohio) in PBS and incubated with rabbit anti-rat HO-1 or iNOS polyclonal Abs (SangStat, Fremont, Calif.). Relative protein quantities were determined using a densitometer (Kodak Digital Science 1D Analysis Software, Rochester, N.Y.).

[4] = test system: LEW.1W aortic allografts in LEW.1A rats; assay: Chronic aorta allograft rejection model, morphometry of intima thickness; type: in vivo, rat; conditions: day 30
Method: Animals and aorta transplantation. Transplantations were performed using 250 g inbred male Lewis 1W rats (LEW. 1W, haplotype RT1^u) as donors and LEW.1A rats (haplotype RT1^a) as recipients (CERJ, Le Genest St. Isle, France). These animals are completely mismatched for the entire MHC region. Animal procedures followed European guidelines for animal experimentation. The descending thoracic aortas were harvested, perfused with saline and anastomosed to the recipient's abdominal aorta below the renal arteries and above the aortic bifurcation. Anastomosis was performed in a termino-lateral fashion and the recipient abdominal aorta was ligated between the two-graft anastomosis. […]
MC (Sigma, St. Louis, Mo.) was diluted in olive oil and administered orally on a daily basis (from day 0 to 30) at 500 mg/kg. […] COHb levels were evaluated in heparinized venous blood using the VOXimeter sensor (A-VOX Systems, San Antonio, Tex.) and expressed as the percentage of total hemoglobin. Bicarbonates, soluble CO2, total CO2 and pH were measured using standard clinical biochemistry techniques (Laboratory of Biochemistry, University Hospital of Nantes).
Recombinant adenovirus and gene transfer into the aorta. […] Quantification of infectious adenoviral particles was determined by counting the number of spots (corresponding to individual viral replication events) on infected 293 cells. […]

[5] = cited from earlier work

Compound: [C-]#[O+] [CO, carbon monoxide]
- Banff score of I/R injury ([1]; 1 h reperfusion): 1.2±0.31
- Banff score of I/R injury ([1]; 2 h reperfusion): 2.0±0.12
- MPO activity [2]: 1.3±0.2 U/mg
- HO-1 protein accentuated (Western blot) vs air alone [3]: ca. 3 fold

Compound: ClCCl [methylene chloride]
- intimal thickening (mean±SEM) ([4]; allogeneic aortic grafts, MC 500 mg/kg orally daily, adenoviruses 10^10 IP into donor aorta): 8.3±4.5%
- infiltrating cells in adventitia (HES) [4]: moderate reduction
- HbCO generated ([5]; 500 mg/kg MC per os): around 10%
- half life of metabolism ([5]; 500 mg/kg MC per os): about 3 h
- toxicity on repeated administration ([5]; 500 mg/kg for 4 weeks, rats): did not induce major body weight, biochemical or histological changes
- maximal COHb values in venous or aortic blood ([5]; 500 mg/kg orally): 10 % COHb
- portion of the compound converted into carbon monoxide ([5]; rat, in vivo): 50-80%
